# Reference: publication PMC7377239, “Cardiovascular Effects of Polychlorinated Biphenyls and Their Major Metabolites” (Environmental Health Perspectives, 2020)
# Counter-ions that a name gives are not always drawn. Like-named read-outs stand apart in the source and are kept apart here.
# System: iCell cardiomyocytes (human iPSC-derived cardiomyocytes)
# Test: Intracellular Ca2+ flux / beating parameters in iCell cardiomyocytes (FLIPR tetra), 90 min or 24 h
# Type: cell-based
# Conditions: Homo sapiens, Cardiomyocyte, 0.00 µM = 100.00; for activity at 0.1 µM: 0.10 µM
# Description: Details on cardiomyocyte cell culture are described in detail elsewhere ([Grimm et al. 2015b]; [Sirenko et al. 2013a]). Briefly, tissue-culture treated 384 well plates were gelatinized with 25μL per well of 0.1% (w/v) gelatin in water for 2 h at 37°C and 5% CO2 . Individual vials of cells were thawed for 4 min in a water bath maintained at 37°C. Thawed cells were resuspended in 10ml plating medium containing 1:500 (vol/vol) penicillin/streptomycin solution at room temperature (RT). Live cell counts for each cell suspension were determined by trypan blue staining and cells were further diluted to provide final cell densities of 2×10^5 viable cells/ml. Thus, 5,000 cells suspended in 25μL media were transferred per well after the gelatin solution had been discarded. Cell culture plates were rested for 30 min at RT before they were incubated for 48 h at 37°C and 5% CO2 . Then, a media exchange with 30μL of fresh maintenance medium containing 1:500 (vol/vol) penicillin/streptomycin solution was performed, and cell media were subsequently changed every 48 h for 12 d. On the experiment day, the medium was completely exchanged with either 25μL (for Ca^2+ flux assay) or 40μL (for imaging) of fresh medium.
# Responses of iCell®-cardiomyocytes to drugs and chemicals were evaluated using intracellular Ca^2+ flux measurements ([Grimm et al. 2015b]; [Sirenko et al. 2013b]). For experiments, 20 mM stock solutions of PCBs and PCB metabolites were prepared in DMSO ( 200× ). Chemical working solutions ( 5× ) were prepared using cardiomyocyte maintenance medium and contained 2.5% (vol/vol) DMSO. These chemical master plates were prepared to include all chemicals in concentration–response (0.05, 0.5, 5, 50, and 500μM ). Negative controls included media-only and vehicle control (i.e., 0.5% vol/vol DMSO in cell culture media) wells. Positive assay controls were consistent with previously published reports ([Grimm et al. 2018]) and included TAB ( 50μM ) as a cytotoxic control, and isoproterenol ( 0.1–10μM ), propranolol ( 0.1–5 μM ), cisapride ( 0.01–1μM ), and doxorubicin ( 0.1–5μM ) as chemicals associated with specific effects on beating and ion flux. Each test chemical was screened in triplicate for each concentration.
# Experiments started with the addition of 25μL of prewarmed 2× concentrated calcium dye reagent to sample wells containing 25μL maintenance media. Microplates were then acclimated for 2 h at 37°C. Following equilibration, cardiomyocyte sample wells were treated simultaneously by the addition of 12.5μL of prewarmed 5× chemical solution to iCell®-cardiomyocytes using the automated liquid handler in the FLIPR tetra (Molecular Devices). Treated cell cultures were incubated for either 90 min or 24 h. After the conclusion of the treatment period, the Ca^2+ flux was measured for 100 s at a frequency of 8 Hz using the integrated fluorescence plate reader in the FLIPR tetra (Molecular Devices) using an emission wavelength range of λemission=515–575 nm ( λexcitation=470–495 nm ). Additional instrument settings included exposure time per read of 0.05s, a gain of 2000, an excitation intensity of 30%, and an internal temperature of 37°C.
# Ca^2+ flux data were processed in R studio (version 1.0.136, with R version 3.3.2; R Development Core Team) as described elsewhere ([Blanchette et al. 2019]; [Burnett et al. 2019]). Calculated quantitative metrics included the means and coefficients of variation (CV) of the peak height, which can be indicative of cytotoxicity, inhibition, or stimulation of beating. Means of peak frequency, an indicator of positive or negative […], and CV of peak spacing, an indicator of irregular beating, were also derived from Ca^2+ flux traces. Finally, the mean ratio of the decay over rise time was calculated. Increases in the decay/rise time ratio are reflective of delayed repolarization and are a measure for QT prolongation. […]
# [1] = 1.5 h, 90min, read-out: cm.amp.avg.90min
# [2] = 1.5 h, 90min, read-out: cm.amp.cv.90min
# [3] = 1.5 h, 90min, read-out: cm.bpm.90min
# [4] = 1.5 h, 90min, read-out: cm.decay.rise.90min
# [5] = 1.5 h, 90min, read-out: cm.spacing.cv.90min
# [6] = 24 h, 24hrs, read-out: cm.amp.avg.24hrs
# [7] = 24 h, 24hrs, read-out: cm.amp.cv.24hrs
# [8] = 24 h, 24hrs, read-out: cm.bpm.24hrs
# [9] = 24 h, 24hrs, read-out: cm.decay.rise.24hrs
# [10] = 24 h, 24hrs, read-out: cm.spacing.cv.24hrs
compound,measurement,setting,value
O=S(=O)(O)Oc1cc(Cl)c(-c2cc(Cl)ccc2Cl)cc1Cl [4-yl PCB 52 sulfate],activity at 0.01 µM,[1],103%
same,activity at 0.01 µM,[2],105%
same,activity at 0.01 µM,[3],102%
same,activity at 0.01 µM,[4],101%
same,activity at 0.01 µM,[5],100%
same,activity at 0.1 µM,[1],113%
same,activity at 0.1 µM,[2],86.3%
same,activity at 0.1 µM,[3],103%
same,activity at 0.1 µM,[4],90.8%
same,activity at 0.1 µM,[5],101%
same,activity at 1 µM,[1],102%
same,activity at 1 µM,[2],104%
same,activity at 1 µM,[3],100%
same,activity at 1 µM,[4],97.7%
same,activity at 1 µM,[5],97.4%
same,activity at 10 µM,[1],98.4%
same,activity at 10 µM,[2],103%
same,activity at 10 µM,[3],97.8%
same,activity at 10 µM,[4],97.1%
same,activity at 10 µM,[5],104%
same,activity at 100 µM,[1],0%
same,activity at 100 µM,[2],0%
same,activity at 100 µM,[3],0%
same,activity at 100 µM,[4],0%
same,activity at 100 µM,[5],0%
same,activity at 0.01 µM,[6],128%
same,activity at 0.01 µM,[7],103%
same,activity at 0.01 µM,[8],97.4%
same,activity at 0.01 µM,[9],104%
same,activity at 0.01 µM,[10],107%
same,activity at 0.1 µM,[6],135%
same,activity at 0.1 µM,[7],70.5%
same,activity at 0.1 µM,[8],94.5%
same,activity at 0.1 µM,[9],109%
same,activity at 0.1 µM,[10],110%
same,activity at 1 µM,[6],147%
same,activity at 1 µM,[7],69.4%
same,activity at 1 µM,[8],95.5%
same,activity at 1 µM,[9],104%
same,activity at 1 µM,[10],91.9%
same,activity at 10 µM,[6],167%
same,activity at 10 µM,[7],68.9%
same,activity at 10 µM,[8],92.6%
same,activity at 10 µM,[9],98.8%
same,activity at 10 µM,[10],111%
same,activity at 100 µM,[6],0%
same,activity at 100 µM,[7],0%
same,activity at 100 µM,[8],0%
same,activity at 100 µM,[9],0%
same,activity at 100 µM,[10],0%
